{"source": "paper PMC3955222", "about": "(Chembiochem : a European journal of chemical biology, 2013)", "molecular_target": "T1, CODH ICh (Carboxydothermus hydrogenoformans, UniProt P59934)", "T1 sequence (P59934 2-636)": "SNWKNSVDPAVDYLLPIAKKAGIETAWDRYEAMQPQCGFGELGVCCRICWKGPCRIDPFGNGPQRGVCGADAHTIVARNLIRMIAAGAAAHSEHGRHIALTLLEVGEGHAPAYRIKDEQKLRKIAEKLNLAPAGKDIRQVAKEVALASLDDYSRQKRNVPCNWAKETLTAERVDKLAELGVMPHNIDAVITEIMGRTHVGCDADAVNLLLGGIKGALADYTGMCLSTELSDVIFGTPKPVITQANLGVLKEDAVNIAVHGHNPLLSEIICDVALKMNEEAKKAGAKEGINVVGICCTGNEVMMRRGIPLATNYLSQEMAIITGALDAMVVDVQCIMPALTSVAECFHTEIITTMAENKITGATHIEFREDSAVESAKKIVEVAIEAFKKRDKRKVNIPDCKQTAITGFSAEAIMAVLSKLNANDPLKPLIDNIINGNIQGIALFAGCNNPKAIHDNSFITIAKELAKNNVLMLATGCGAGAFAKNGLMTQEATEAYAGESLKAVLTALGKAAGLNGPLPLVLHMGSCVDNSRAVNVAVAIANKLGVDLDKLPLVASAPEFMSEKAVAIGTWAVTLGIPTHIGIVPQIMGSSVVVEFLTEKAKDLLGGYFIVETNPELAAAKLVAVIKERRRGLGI", "type": "biochemical", "data": [{"smiles": "N#CO", "note": "[cyanate]", "values": [{"measurement": "chronoamperometry, inactivation half-time at 6.7 mM cyanate", "value": "~ 90 seconds"}]}]}
